SMILES strings stand for the structures.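 A five-concentration, 48-hour dose response in 96-well plates underlies each endpoint, interpolated linearly between surrounding concentrations. TGI marks complete inhibition of growth.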

The values below come from PubChem BioAssay (NCI).

Some test systems named below: SW-620 colon; SNB-19 CNS; SN12C renal; UO-31 renal; HT29 colon; DU-145 prostate; U251 CNS; KM12 colon; OVCAR-8 ovarian; EKVX NSCLC; NCI-H522 lung.
Common to all, as to assay: NCI anticancer screen, dose series, 48 h

As for `O=S(=O)(c1ccccc1)c1ccc(-c2nc(-c3ccc4c(c3)Sc3ccccc3S4)cs2)cc1`, the TGI in the experiment with SW-620 colon, in the experiment on SNB-19 CNS, with SN12C renal, in the experiment on UO-31 renal, with HT29 colon and with DU-145 prostate was more than 100 µM each time. Moreover, the TGI in the experiment with U251 CNS, in the experiment on KM12 colon, with OVCAR-8 ovarian and with EKVX NSCLC was more than 100 µM each time.

With `C=C(C)CCC1C=[N+]([O-])OC(C)(C)C1(C)C` (centres undefined), the TGI in the experiment with SW-620 colon, in the experiment with SN12C renal, in the experiment with NCI-H522 lung, with UO-31 renal, with HT29 colon and in the experiment on DU-145 prostate was more than 100 µM throughout. Moreover, the TGI in the experiment on U251 CNS, in the experiment with KM12 colon, in the experiment on OVCAR-8 ovarian and in the experiment with EKVX NSCLC was more than 100 µM throughout.

Turning to `CSc1ccc2c(c1)c(CCN)c(C)n2Cc1ccccc1Cl`, the TGI in the experiment on SW-620 colon was 3.89 µM; with SNB-19 CNS, 3.32 µM; with SN12C renal it was 3.06 µM; with NCI-H522 lung, 3 µM; in the experiment with UO-31 renal it was 2.96 µM; in the experiment with HT29 colon it was 3.09 µM. The TGI in the experiment on DU-145 prostate came out at 3.04 µM; in the experiment with U251 CNS, 3.06 µM; with KM12 colon, 3.32 µM; in the experiment with EKVX NSCLC, 3.12 µM.

As for `CC(=O)NC(C)(C)C1CCC(C)CC1` (centres undefined), the TGI with SW-620 colon, in the experiment with SNB-19 CNS, in the experiment with SN12C renal, in the experiment with UO-31 renal, with HT29 colon and in the experiment on DU-145 prostate was more than 100 µM throughout. For the same compound, the TGI in the experiment with U251 CNS, in the experiment with KM12 colon, in the experiment with OVCAR-8 ovarian and in the experiment on EKVX NSCLC was more than 100 µM in each case.

For the compound `O=c1/c(=C/c2ccccn2)sc2nc3cc4c(cc3n12)OCCO4`, the TGI in the experiment on SW-620 colon, with SNB-19 CNS, in the experiment on SN12C renal, in the experiment on NCI-H522 lung, in the experiment with UO-31 renal and in the experiment with HT29 colon was more than 100 µM in each case. Further, the TGI in the experiment on DU-145 prostate, with U251 CNS, with KM12 colon and in the experiment with OVCAR-8 ovarian was more than 100 µM each time.

Take `COc1cc(S(=O)(=O)Nc2ccc(-c3csc(N4C(=O)CSC4c4ccccc4O)n3)cc2)ccc1Cl` (centres undefined): the TGI in the experiment with SW-620 colon was more than 100 µM; in the experiment on SNB-19 CNS, more than 100 µM; in the experiment on SN12C renal it was more than 100 µM; in the experiment on NCI-H522 lung, 55.6 µM; in the experiment with UO-31 renal it was more than 100 µM; in the experiment on HT29 colon, more than 100 µM. Further, the TGI in the experiment with DU-145 prostate is more than 100 µM; in the experiment on KM12 colon, more than 100 µM; in the experiment on OVCAR-8 ovarian, more than 100 µM; in the experiment with EKVX NSCLC, 85.5 µM.

Consider `CSc1nc(NCc2ccccc2)c2cnn(COCCO)c2n1`, for which the TGI in the experiment with SW-620 colon, in the experiment on SN12C renal, in the experiment on NCI-H522 lung, in the experiment with UO-31 renal, in the experiment on HT29 colon and with DU-145 prostate was more than 100 µM each time. Also, the TGI with U251 CNS was more than 100 µM; in the experiment with KM12 colon it was more than 100 µM; in the experiment on OVCAR-8 ovarian, more than 100 µM; in the experiment with EKVX NSCLC it was 63.5 µM.

Turning to `CCOC(=O)c1cc(C)nc2c1c(=O)n(-c1ccccc1)c(=O)n2CCCCN1CCN(c2ncccn2)CC1`, the TGI with SW-620 colon, in the experiment with SN12C renal, with NCI-H522 lung, in the experiment with UO-31 renal, in the experiment with HT29 colon and in the experiment with DU-145 prostate was more than 100 µM throughout. Moreover, the TGI with U251 CNS, with KM12 colon, with OVCAR-8 ovarian and in the experiment with EKVX NSCLC was more than 100 µM each time.

Take `CC(C)(C)OC(=O)N1N=CCC1c1ccccc1` (centres undefined): the TGI with SW-620 colon, in the experiment with SN12C renal, with NCI-H522 lung, in the experiment with UO-31 renal, with HT29 colon and with DU-145 prostate was more than 100 µM each time. The TGI in the experiment on KM12 colon, in the experiment on OVCAR-8 ovarian and in the experiment on EKVX NSCLC was more than 100 µM in each case.

Take `COC(=O)c1c2c(cc3c1CC1(Cc4ccccc4C1)C3)CCC2`: the TGI with SW-620 colon was 39.7 µM; in the experiment with SN12C renal it was 95.8 µM; in the experiment on NCI-H522 lung, 35.2 µM; in the experiment with UO-31 renal, more than 100 µM; with HT29 colon, 34 µM; in the experiment on DU-145 prostate, more than 100 µM. Moreover, the TGI in the experiment on U251 CNS was 48.6 µM; in the experiment on KM12 colon, 70.2 µM; in the experiment on OVCAR-8 ovarian it was more than 100 µM; in the experiment on EKVX NSCLC it was 98.7 µM.

On to `CC(NNC(=O)c1ccncc1)c1cccc(C(F)(F)F)c1` (centres undefined), for which the TGI in the experiment on SW-620 colon, in the experiment on SN12C renal, in the experiment on NCI-H522 lung, with UO-31 renal, with HT29 colon and in the experiment on DU-145 prostate was more than 100 µM in each case. Further, the TGI with U251 CNS, with KM12 colon, in the experiment with OVCAR-8 ovarian and in the experiment on EKVX NSCLC was more than 100 µM each time.

As for `O=C(CC(C(=O)c1cccs1)c1ccsc1)c1ccc(Cl)s1` (centres undefined), the TGI with SW-620 colon, in the experiment on SNB-19 CNS, in the experiment with SN12C renal, in the experiment on UO-31 renal, with HT29 colon and in the experiment with DU-145 prostate was more than 100 µM throughout. For the same compound, the TGI with U251 CNS, in the experiment on KM12 colon, in the experiment on OVCAR-8 ovarian and in the experiment on EKVX NSCLC was more than 100 µM each time.

Consider `COc1ccc(/C=C/C(=O)c2ccc(Br)cc2)cc1`, for which the TGI in the experiment with SW-620 colon, in the experiment with SNB-19 CNS, in the experiment on SN12C renal, in the experiment with UO-31 renal, in the experiment with HT29 colon and with DU-145 prostate was more than 100 µM in each case. The TGI in the experiment on U251 CNS, in the experiment with KM12 colon, in the experiment with OVCAR-8 ovarian and in the experiment with EKVX NSCLC was more than 100 µM throughout.
